Concentration and Kp data for one compound are collected here from ChEMBL document CHEMBL3864179, “Development of 1H-Pyrazolo[3,4-b]pyridines as Metabotropic Glutamate Receptor 5 Positive Allosteric Modulators” (ACS Med Chem Lett, 2016).

Each structure is given as a SMILES string.

The nature of data set [1]: Plasma concentration in C57Bl/6 mouse at 30 mg/kg, ip measured after 60 mins. The class given is ADME, organism-based.
Data set [2] is described as follows: Ratio of drug level in brain to plasma in C57Bl/6 mouse at 30 mg/kg, ip. It counts as ADME, organism-based. To be noted: read-out: BPR.

Compound `N#Cc1c(-c2ccccc2)nc2[nH]nc(-c3ccc(Cl)c(C(F)(F)F)c3)c2c1C1CC1` yielded a concentration at 1 h in data set [1] of 2800 nM. In addition, the Kp in data set [2] was found to be 0.5.
